In the NIST ThermoML archive (doi:10.1016/j.tca.2019.178383):

Assay: xn = mol fraction of the nth substance listed
Settings: for surface tension liquid-gas: Maximal bubble pressure; for mass density: 100 kPa, Liquid, Vibrating tube method

CCn1cc[n+](CCOC)c1.O=S(=O)([O-])C(F)(F)F + CCCO
Settings | mass density [kg/m3] | surface tension liquid-gas [mN/m]
288.15 K, x1 = 0.0987 | 944.376 | 23.4
288.15 K, x1 = 0.1999 | 1043.54 | 24.2
288.15 K, x1 = 0.2982 | 1114.64 | 25
288.15 K, x1 = 0.3994 | 1171.5 | 26.2
288.15 K, x1 = 0.499 | 1215.82 | 27.7
288.15 K, x1 = 0.5993 | 1252.38 | 29.5
288.15 K, x1 = 0.6979 | 1282.09 | 31.5
288.15 K, x1 = 0.8009 | 1308.48 | 33
288.15 K, x1 = 0.8992 | 1329.95 | 34.8
288.15 K, x1 = 1 | 1348.94 | 36.3
293.15 K, x1 = 0.0987 | 940.25 | 23.1
293.15 K, x1 = 0.1999 | 1039.33 | 23.8
293.15 K, x1 = 0.2982 | 1110.4 | 24.7
293.15 K, x1 = 0.3994 | 1167.24 | 25.9
293.15 K, x1 = 0.499 | 1211.56 | 27.4
293.15 K, x1 = 0.5993 | 1248.12 | 29.2
293.15 K, x1 = 0.6979 | 1277.83 | 31.3
293.15 K, x1 = 0.8009 | 1304.21 | 32.7
293.15 K, x1 = 0.8992 | 1325.68 | 34.6
293.15 K, x1 = 1 | 1344.66 | 36.1
298.15 K, x1 = 0.0987 | 936.122 | 22.7
298.15 K, x1 = 0.1999 | 1035.12 | 23.5
298.15 K, x1 = 0.2982 | 1106.16 | 24.3
298.15 K, x1 = 0.3994 | 1162.99 | 25.5
298.15 K, x1 = 0.499 | 1207.32 | 27.1
298.15 K, x1 = 0.5993 | 1243.87 | 28.9
298.15 K, x1 = 0.6979 | 1273.58 | 31
298.15 K, x1 = 0.8009 | 1299.97 | 32.5
298.15 K, x1 = 0.8992 | 1321.43 | 34.4
298.15 K, x1 = 1 | 1340.41 | 35.8
303.15 K, x1 = 0.0987 | 931.974 | 22.4
303.15 K, x1 = 0.1999 | 1030.91 | 23.1
303.15 K, x1 = 0.2982 | 1101.93 | 24
303.15 K, x1 = 0.3994 | 1158.75 | 25.1
303.15 K, x1 = 0.499 | 1203.08 | 26.7
303.15 K, x1 = 0.5993 | 1239.64 | 28.6
303.15 K, x1 = 0.6979 | 1269.36 | 30.7
303.15 K, x1 = 0.8009 | 1295.75 | 32.2
303.15 K, x1 = 0.8992 | 1317.21 | 34.2
303.15 K, x1 = 1 | 1336.17 | 35.5
308.15 K, x1 = 0.0987 | 927.821 | 22.1
308.15 K, x1 = 0.1999 | 1026.69 | 22.7
308.15 K, x1 = 0.2982 | 1097.7 | 23.6
308.15 K, x1 = 0.3994 | 1154.52 | 24.8
308.15 K, x1 = 0.499 | 1198.86 | 26.4
308.15 K, x1 = 0.5993 | 1235.43 | 28.3
308.15 K, x1 = 0.6979 | 1265.15 | 30.4
308.15 K, x1 = 0.8009 | 1291.54 | 32
308.15 K, x1 = 0.8992 | 1313 | 33.9
308.15 K, x1 = 1 | 1331.96 | 35.3
313.15 K, x1 = 0.0987 | 923.647 | 21.7
313.15 K, x1 = 0.1999 | 1022.48 | 22.4
313.15 K, x1 = 0.2982 | 1093.47 | 23.2
313.15 K, x1 = 0.3994 | 1150.29 | 24.5
313.15 K, x1 = 0.499 | 1194.66 | 26.1
313.15 K, x1 = 0.5993 | 1231.23 | 28
313.15 K, x1 = 0.6979 | 1260.96 | 30
313.15 K, x1 = 0.8009 | 1287.35 | 31.7
313.15 K, x1 = 0.8992 | 1308.81 | 33.7
313.15 K, x1 = 1 | 1327.77 | 35.1
318.15 K, x1 = 0.0987 | 919.45 | 21.3
318.15 K, x1 = 0.1999 | 1018.44 | 22.1
318.15 K, x1 = 0.2982 | 1089.25 | 22.8
318.15 K, x1 = 0.3994 | 1146.1 | 24.2
318.15 K, x1 = 0.499 | 1190.46 | 25.8
318.15 K, x1 = 0.5993 | 1227.04 | 27.8
318.15 K, x1 = 0.6979 | 1256.78 | 29.7
318.15 K, x1 = 0.8009 | 1283.18 | 31.4
318.15 K, x1 = 0.8992 | 1304.63 | 33.5
318.15 K, x1 = 1 | 1323.6 | 34.9
